Reference: patent US20260176253A1 (priority 2021, published 2026)

How the values were obtained:
5HT2A sensor [1] = format: cell-based
5HT2A sensor [2] = format: cell-based; remark: listed apart in the source
rat cortical neurons = assay: Neurite outgrowth in primary neuronal cultures assay; format: cell-based; design: key: A: Statistically significant mean increase as a percent of DMSO control at 10 μM or less; B: No statistically significant mean increase as a percent of DMSO control at 10 μM or less; conditions: 72h, vs DMSO control, 10 μM or less
Excerpt: Neurite Outgrowth Assay. Neurite Outgrowth in Primary Neuronal Cultures Assay. Changes in the pattern of neurite outgrowth have been implicated in psychiatric and neurodegenerative disorders as well as traumatic injuries. The discovery of new compounds that can positively affect neuritogenesis are important for developing new therapeutics for neurological diseases. Measurement of neurite outgrowth of rat cortical neurons using an automated image-based assay was used to determine the neuroplastic effects of the compounds of the present disclosure. The neurite outgrowth assay was performed at Neurofit SAS (France) as described below.
Pregnant Wistar rats (Janvier; France) were used for the study. They were delivered 6 days before their use. Upon arrival at Neurofit animal facility, they were housed one per cage and maintained in a room with controlled temperature (21-22° C.) and a reversed light-dark cycle (12 h/12h; lights on: 17:30-05:30; lights off: 05:30-17:30) with food and water available ad libitum.
Female Wistar rats of 17 days gestation were killed by cervical dislocation and the fetuses were removed from the uterus. Their brains were placed in ice-cold medium of Leibovitz (L15, Gibco, Fisher bioblock, France). Cortices were dissected and meninges were carefully removed. The cortical neurons were dissociated by trypsinization for 30 min at 37° C. (trypsin-EDTA, Gibco) in presence of 0.1 mg/ml DNAse I (Roche, France). The reaction was stopped by addition of Dulbecco's Modified Eagle Medium (DMEM; Gibco) with 10% of fetal bovine serum (FBS; Gibco). The suspension was triturated with a 10-ml pipette and using a needle syringe 21G and centrifuged at 350×g for 10 min at room temperature. The pellet of dissociated cells was resuspended in a medium consisting of Neurobasal (Gibco) supplemented with 2% B27 supplement (Gibco), 0.5 mM L-Glutamine (Gibco), an antibiotic-antimicotic mixture. Viable cells were counted in a Neubauer cytometer using the trypan blue exclusion test (Sigma). Cells were seeded at a density of 10000 cells per well in 96-well plate (Costar) precoated with poly-L-lysine. Test compound at different concentrations were added to the cultures. Donepezil (positive control) was tested at 250 nM.
After 72h (3 days) of plating, cultures were fixed with paraformaldehyde in PBS (4%, Sigma) for 30 min at 4° C. Then, cells were successively permeabilized with 0.1% Triton X100 for 30 min, saturated with PBS containing 3% of BSA and were incubated 1 h with anti-beta III tubulin antibody (Sigma) at 1/10 000 in PBS containing 0.5% of BSA. Cells were washed three times with PBS containing 0.5% of BSA, and they were incubated 1 h with goat anti-mouse antibody coupled with AF488 (Invitrogen A11001) diluted at 1/1000 in PBS containing 0.5% of BSA. Finally, nuclei were staining with DAPI 1 mg/ml at 1/1000 in PBS containing 0.5% of BSA. After rinsing with PBS, the plate was filmed and neurite networks were examined and analyzed using High-Content Screening (CellInsight, Thermo Scientific). The average number of neurites per neuron and the average total length of neurites per neuron were the main parameters analyzed. Analysis of data was performed using analysis of variance (ANOVA). The Fisher's Protected Least Significant Difference test was used for multiple comparisons. A p value ≤0.05 was considered significant. The software used is StatView 5.0 from SAS Institut.

5-HT2A [3] = molecular target: T1, 5-HT2A (Homo sapiens, UniProt P28223); assay: Serotonin 5-HT2A in vitro cellular IPOne agonism assay (HTRF); format: cell-based; design: host or cells: CHO-K1; conditions: CHO-K1 cells, 60 min
T1 sequence (P28223 whole entry): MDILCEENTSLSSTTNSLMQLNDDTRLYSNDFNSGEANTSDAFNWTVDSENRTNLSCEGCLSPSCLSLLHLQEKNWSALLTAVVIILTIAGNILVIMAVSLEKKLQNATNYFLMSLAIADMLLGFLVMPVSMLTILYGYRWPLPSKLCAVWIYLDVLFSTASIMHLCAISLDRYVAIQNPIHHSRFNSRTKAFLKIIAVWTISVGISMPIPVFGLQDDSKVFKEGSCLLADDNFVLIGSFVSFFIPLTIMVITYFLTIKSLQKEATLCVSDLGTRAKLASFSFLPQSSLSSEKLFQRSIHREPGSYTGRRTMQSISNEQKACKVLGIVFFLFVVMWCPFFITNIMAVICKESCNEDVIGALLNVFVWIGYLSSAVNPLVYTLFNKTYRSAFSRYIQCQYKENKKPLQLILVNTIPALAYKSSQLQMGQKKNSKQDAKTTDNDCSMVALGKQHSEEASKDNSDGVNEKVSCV
Experimental: Serotonin 5-HT2AIn Vitro Cellular IPOne Agonism Assay. The 5-HT2AIPOne HTRF assay was performed at Epics Therapeutics S. A. (Belgium, FAST-0505I) using conventional methods. Briefly, CHO—K1 cells expressing human recombinant 5-HT2A receptor grown to mid-log phase in culture media without antibiotics were detached with PBS-EDTA, centrifuged, and resuspended in medium without antibiotics buffer. 20,000 cells were distributed in a 96 well plate and incubated overnight at 37° C. with 5% Co2.
For agonist testing, the medium was removed and 20 μl of assay buffer plus 20 μl of test compound or reference agonist were added in each well. The plate was incubated for 60 min. at 37° C. with 5% CO2.
(§1) After addition of the lysis buffer containing IP1-d2 and anti-IP1 cryptate detection reagents, plates were incubated 1-hour at room temperature, and fluorescence ratios were measured according to the manufacturer specification, with the HTRF kit.

5-HT2A [4] = molecular target: T1, 5-HT2A; assay: Serotonin 5-HT2A in vitro cellular IPOne antagonism assay (HTRF); format: cell-based; design: host or cells: CHO-K1; conditions: CHO-K1 cells, reference agonist a-Me-5HT
Experimental: Serotonin 5-HT2AIn Vitro Cellular IPOne Antagonism Assay. The 5-HT2AIPOne HTRF assay was performed at Epics Therapeutics S. A. (Belgium, FAST-0505I) in antagonism mode using conventional methods. Briefly, CHO—K1 cells expressing human recombinant 5-HT2A receptor grown to mid-log phase in culture media without antibiotics were detached with PBS-EDTA, centrifuged, and resuspended in medium without antibiotics buffer. 20,000 cells were distributed in a 96 well plate and incubated overnight at 37° C. with 5% Co2.
For antagonist testing, a reference agonist a-Me-5HT was added and fluorescence signal monitored for several minutes, followed by addition of 20 μl of assay buffer plus 20 μl of test compound or reference antagonist ketanserin, in each well. The plate was incubated for 60 min. at 37° C. with 5% CO2.
as §1

5-HT2A [5] = molecular target: T1, 5-HT2A; assay: Serotonin 5-HT2A in vitro radioligand binding competition assay ([3H]-DOI); design: purchased Epics Therapeutics S. A. (Belgium), contract assay FAST-0505B; host or cells: membrane extracts; conditions: [3H]-DOI competition, membrane extracts; read-out: 5HT2A R[…] ACTIVITY
Experimental: Serotonin 5-HT2AIn Vitro Radioligand Binding Competition Assay. The 5-HT2A radioligand binding competition assay was performed at Epics Therapeutics S. A. (Belgium, FAST-0505B) using conventional methods. Briefly, competition binding is performed in duplicate in the wells of a 96 well plate (Master Block, Greiner, 786201) containing binding buffer (optimized for each receptor), membrane extracts (amount of protein/well optimized for each receptor), radiotracer [3H]-DOI (final concentration optimized for each receptor) and test compound. Nonspecific binding was determined by co-incubation with 200-fold excess of cold competitor. The samples were incubated in a final volume of 0.1 ml at a temperature and for a duration optimized for each receptor and then filtered over filter plates. Filters were washed six times with 0.5 ml of ice-cold washing buffer (optimized for each receptor) and 50 µl of Microscint 20 (Packard) were added in each well. The plates were incubated 15 min on an orbital shaker and then counted with a TopCount™ for 1 min/well.

| Compound | activation of the 5HT2A sensor assay in agonist mode (5HT2A sensor [1]) | competition with 5-HT in the 5HT2A sensor assay in antagonist mode (5HT2A sensor [2]) | INCREASE IN NEURITE BRANCHING (rat cortical neurons) | INCREASE IN NEURITE LENGTH (rat cortical neurons) | INCREASE IN NEURITE NUMBER (rat cortical neurons) | EC50 (5-HT2A [3]) | IC50 (5-HT2A [4]) | IC50 (5-HT2A [5]) |
| --- | --- | --- | --- | --- | --- | --- | --- | --- |
| CCN(CC)C(=O)[C@@H]1C=C2c3cccc4[nH]c(Br)c(c34)C[C@H]2N(C)C1 [BOL148] | do not activate the 5HT2A sensor assay in agonist mode | can compete with 5HT binding to 5HT2A | – | – | – | – | – | – |
| CCN(CC)CCc1c[nH]c2cc(F)ccc12 [Compound 6-F-DET] | do not activate the 5HT2A sensor assay in agonist mode | can compete with 5HT binding to 5HT2A | – | – | – | – | – | – |
| c1ccc2c3c([nH]c2c1)C[C@H]1CCCN1CC3 [Compound 20, (R)-1,2,3,5,6,11,12,12a-octahydropyrrolo[1′,2′:1,2]azepino[4,5-b]indole] | – | – | A | A | A | 101 to 1000 nM | 1000 to 10000 nM | 101 to 1000 nM |
| FC(F)(F)c1cccc2[nH]c3c(c12)CCN1CCCC1C3 (centres unmarked) [Compound 21, 7-(trifluoromethyl)-1,2,3,5,6,11,12,12a-octahydropyrrolo[1′,2′:1,2]azepino[4,5-b]indole] | – | – | A | A | B | > 10000 nM | 101 to 1000 nM | 1000 to 10000 nM |
| c1ccc2c3c([nH]c2c1)CCN1CCC[C@@H]1C3 [Compound 22, (R)-1,2,3,5,6,7,12,12a-octahydropyrrolo[1′,2′:1,7]azepino[4,5-b]indole] | – | – | A | A | A | 101 to 1000 nM | 101 to 1000 nM | 1000 to 10000 nM |
| c1ccc2c3c([nH]c2c1)CCN1CCC[C@H]1C3 [Compound 23, (S)-1,2,3,5,6,7,12,12a-octahydropyrrolo[1′,2′:1,7]azepino[4,5-b]indole] | – | – | A | A | A | > 10000 nM | 10 to 100 nM | 101 to 1000 nM |
| COc1ccc2c3c([nH]c2c1)CCN1CCC[C@@H]1C3 [Compound 24, (R)-9-methoxy-1,2,3,5,6,7,12,12a-octahydropyrrolo[1′,2′:1,7]azepino[4,5-b]indole] | – | – | A | A | A | > 10000 nM | 101 to 1000 nM | 1000 to 10000 nM |
| COc1ccc2c3c([nH]c2c1)CCN1CCC[C@H]1C3 [Compound 25, (S)-9-methoxy-1,2,3,5,6,7,12,12a-octahydropyrrolo[1′,2′:1,7]azepino[4,5-b]indole] | – | – | A | A | A | > 10000 nM | 101 to 1000 nM | > 10000 nM |
| COc1cccc2[nH]c3c(c12)C[C@H]1CCCN1CC3 [Compound 26, (R)-11-methoxy-1,2,3,5,6,7,12,12a-octahydropyrrolo[1′,2′:1,7]azepino[4,5-b]indole] | – | – | A | A | A | 10 to 100 nM | < 10 nM | 101 to 1000 nM |
| COc1cccc2[nH]c3c(c12)C[C@@H]1CCCN1CC3 [Compound 27, (S)-11-methoxy-1,2,3,5,6,7,12,12a-octahydropyrrolo[1′,2′:1,7]azepino[4,5-b]indole] | – | – | A | A | A | 10 to 100 nM | 10 to 100 nM | 10 to 100 nM |
| FC(F)(F)c1cccc2[nH]c3c(c12)CC1CCCN1CC3 (centres unmarked) [Compound 28, 11-(trifluoromethyl)-1,2,3,5,6,7,12,12a-octahydropyrrolo[1′,2′:1,7]azepino[4,5-b]indole] | – | – | A | A | A | 1000 to 10000 nM | 10 to 100 nM | 101 to 1000 nM |
| CN(C)CCc1c[nH]c2ccccc12 [DMT, N,N-dimethyltryptamine] | activate the 5HT2A sensor assay in agonist mode | – | – | – | – | – | – | – |
| COc1cc(CC(C)N)c(OC)cc1I (centres unmarked) [DOI] | activate the 5HT2A sensor assay in agonist mode | – | – | – | – | – | – | – |
| CN[C@H](C)Cc1ccc2c(c1)OCO2 [L-MDMA] | do not activate the 5HT2A sensor assay in agonist mode | – | – | – | – | – | – | – |
| CCN(CC)C(=O)[C@@H]1C=C2c3cccc4[nH]cc(c34)C[C@H]2N(C)C1 [LSD] | activate the 5HT2A sensor assay in agonist mode | – | – | – | – | – | – | – |
